Source: patent US8153627B2, “Quinazoline linked pyrrolo[2,1-C][1, 4]benzodiazepine hybrids as potential anticancer agents and process for the preparation thereof” (Council of Scientific & Industrial Research, priority 2008, dated 2012)

Tested on: CCRF-CEM
Experiment: Cytotoxicity SRB assay, CCRF-CEM
Format: cell-based, human
Conditions: Leukemia CCRF-CEM, 48 h exposure
Method: (§1) 5a, 5c and 5d was evaluated for in vitro anticancer activity against sixty human tumor cells derived from nine cancer types leukemia, non-small-cell lung, colon, CNS, melanoma, ovarian, prostate, and breast cancer) as shown in (Table 1 and 2). For the compound, dose response curves for each cell line were measured at a minimum of five concentrations at 10 fold dilutions. A protocol of 48 h continuous drug exposure was used and a sulforhodamine B (SRB) protein assay was used to estimate cell viability or growth. The concentration causing 50% cell growth inhibition (GI50), total cell growth inhibition (TGI 0% growth) and 50% cell death (LC50, −50% growth) compared with the control was calculated.

| SMILES | GI50 [µM] |
| --- | --- |
| COc1cc2c(cc1OCCCCCN1CCN(c3ncnc4ccccc34)CC1)N=C[C@@H]1CCCN1C2=O [Compound 5c] | 32.5 |

Tested on: HL-60 (TB)
Experiment: Cytotoxicity SRB assay, HL-60 (TB)
Format: cell-based, human
Conditions: Leukemia HL-60 (TB), 48 h exposure
Method: as §1

| SMILES | GI50 [µM] |
| --- | --- |
| COc1cc2c(cc1OCCCCCN1CCN(c3ncnc4ccccc34)CC1)N=C[C@@H]1CCCN1C2=O [Compound 5c] | 65.2 |

Tested on: RPMI-8226
Experiment: Cytotoxicity SRB assay, RPMI-8226
Format: cell-based, human
Conditions: Leukemia RPMI-8226, 48 h exposure
Method: as §1

| SMILES | GI50 [µM] |
| --- | --- |
| COc1cc2c(cc1OCCCCCN1CCN(c3ncnc4ccccc34)CC1)N=C[C@@H]1CCCN1C2=O [Compound 5c] | 45 |

Tested on: NCI-H226
Experiment: Cytotoxicity SRB assay, NCI-H226
Format: cell-based, human
Conditions: Non-small cell lung NCI-H226, 48 h exposure
Method: as §1

| SMILES | GI50 [µM] |
| --- | --- |
| COc1cc2c(cc1OCCCCCN1CCN(c3ncnc4ccccc34)CC1)N=C[C@@H]1CCCN1C2=O [Compound 5c] | 17.8 |

Tested on: NCI-H23
Experiment: Cytotoxicity SRB assay, NCI-H23
Format: cell-based, human
Conditions: Non-small cell lung NCI-H23, 48 h exposure
Method: as §1

| SMILES | GI50 [µM] |
| --- | --- |
| COc1cc2c(cc1OCCCCCN1CCN(c3ncnc4ccccc34)CC1)N=C[C@@H]1CCCN1C2=O [Compound 5c] | 15.8 |

Tested on: NCI-H522
Experiment: Cytotoxicity SRB assay, NCI-H522
Format: cell-based, human
Conditions: Non-small cell lung NCI-H522, 48 h exposure
Method: as §1

| SMILES | GI50 [µM] |
| --- | --- |
| COc1cc2c(cc1OCCCCCN1CCN(c3ncnc4ccccc34)CC1)N=C[C@@H]1CCCN1C2=O [Compound 5c] | 65.3 |

Tested on: HCT-116
Experiment: Cytotoxicity SRB assay, HCT-116
Format: cell-based, human
Conditions: Colon HCT-116, 48 h exposure
Method: as §1

| SMILES | GI50 [µM] |
| --- | --- |
| COc1cc2c(cc1OCCCCCN1CCN(c3ncnc4ccccc34)CC1)N=C[C@@H]1CCCN1C2=O [Compound 5c] | 21 |

Tested on: HCT-15
Experiment: Cytotoxicity SRB assay, HCT-15
Format: cell-based, human
Conditions: Colon HCT-15, 48 h exposure
Method: as §1

| SMILES | GI50 [µM] |
| --- | --- |
| COc1cc2c(cc1OCCCCCN1CCN(c3ncnc4ccccc34)CC1)N=C[C@@H]1CCCN1C2=O [Compound 5c] | 29.7 |

Tested on: SW-620
Experiment: Cytotoxicity SRB assay, SW-620
Format: cell-based, human
Conditions: Colon SW-620, 48 h exposure
Method: as §1

| SMILES | GI50 [µM] |
| --- | --- |
| COc1cc2c(cc1OCCCCCN1CCN(c3ncnc4ccccc34)CC1)N=C[C@@H]1CCCN1C2=O [Compound 5c] | 17.6 |

Tested on: SF-539
Experiment: Cytotoxicity SRB assay, SF-539
Format: cell-based, human
Conditions: CNS SF-539, 48 h exposure
Method: as §1

| SMILES | GI50 [µM] |
| --- | --- |
| COc1cc2c(cc1OCCCCCN1CCN(c3ncnc4ccccc34)CC1)N=C[C@@H]1CCCN1C2=O [Compound 5c] | 30.3 |

Tested on: U251
Experiment: Cytotoxicity SRB assay, U251
Format: cell-based, human
Conditions: CNS U251, 48 h exposure
Method: as §1

| SMILES | GI50 [µM] |
| --- | --- |
| COc1cc2c(cc1OCCCCCN1CCN(c3ncnc4ccccc34)CC1)N=C[C@@H]1CCCN1C2=O [Compound 5c] | 15.8 |

Tested on: LOX IMVI
Experiment: Cytotoxicity SRB assay, LOX IMVI
Format: cell-based, human
Conditions: Melanoma LOX IMVI, 48 h exposure
Method: as §1

| SMILES | GI50 [µM] |
| --- | --- |
| COc1cc2c(cc1OCCCCCN1CCN(c3ncnc4ccccc34)CC1)N=C[C@@H]1CCCN1C2=O [Compound 5c] | 18.2 |

Tested on: MALME-3M
Experiment: Cytotoxicity SRB assay, MALME-3M
Format: cell-based, human
Conditions: Melanoma MALME-3M, 48 h exposure
Method: as §1

| SMILES | GI50 [µM] |
| --- | --- |
| COc1cc2c(cc1OCCCCCN1CCN(c3ncnc4ccccc34)CC1)N=C[C@@H]1CCCN1C2=O [Compound 5c] | 24.2 |

Tested on: M14
Experiment: Cytotoxicity SRB assay, M14
Format: cell-based, human
Conditions: Melanoma M14, 48 h exposure
Method: as §1

| SMILES | GI50 [µM] |
| --- | --- |
| COc1cc2c(cc1OCCCCCN1CCN(c3ncnc4ccccc34)CC1)N=C[C@@H]1CCCN1C2=O [Compound 5c] | 14.5 |

Tested on: SK-MEL-5
Experiment: Cytotoxicity SRB assay, SK-MEL-5
Format: cell-based, human
Conditions: Melanoma SK-MEL-5, 48 h exposure
Method: as §1

| SMILES | GI50 [µM] |
| --- | --- |
| COc1cc2c(cc1OCCCCCN1CCN(c3ncnc4ccccc34)CC1)N=C[C@@H]1CCCN1C2=O [Compound 5c] | 20.9 |

Tested on: UACC-257
Experiment: Cytotoxicity SRB assay, UACC-257
Format: cell-based, human
Conditions: Melanoma UACC-257, 48 h exposure
Method: as §1

| SMILES | GI50 [µM] |
| --- | --- |
| COc1cc2c(cc1OCCCCCN1CCN(c3ncnc4ccccc34)CC1)N=C[C@@H]1CCCN1C2=O [Compound 5c] | 22.9 |

Tested on: UACC-62
Experiment: Cytotoxicity SRB assay, UACC-62
Format: cell-based, human
Conditions: Melanoma UACC-62, 48 h exposure
Method: as §1

| SMILES | GI50 [µM] |
| --- | --- |
| COc1cc2c(cc1OCCCCCN1CCN(c3ncnc4ccccc34)CC1)N=C[C@@H]1CCCN1C2=O [Compound 5c] | 15.1 |

Tested on: OVCAR-3
Experiment: Cytotoxicity SRB assay, OVCAR-3
Format: cell-based, human
Conditions: Ovarian OVCAR-3, 48 h exposure
Method: as §1

| SMILES | GI50 [µM] |
| --- | --- |
| COc1cc2c(cc1OCCCCCN1CCN(c3ncnc4ccccc34)CC1)N=C[C@@H]1CCCN1C2=O [Compound 5c] | 24.9 |

Tested on: 786-0
Experiment: Cytotoxicity SRB assay, 786-0
Format: cell-based, human
Conditions: Renal 786-0, 48 h exposure
Method: as §1

| SMILES | GI50 [µM] |
| --- | --- |
| COc1cc2c(cc1OCCCCCN1CCN(c3ncnc4ccccc34)CC1)N=C[C@@H]1CCCN1C2=O [Compound 5c] | 18.4 |

Tested on: A498
Experiment: Cytotoxicity SRB assay, A498
Format: cell-based, human
Conditions: Renal A498, 48 h exposure
Method: as §1

| SMILES | GI50 [µM] |
| --- | --- |
| COc1cc2c(cc1OCCCCCN1CCN(c3ncnc4ccccc34)CC1)N=C[C@@H]1CCCN1C2=O [Compound 5c] | 20.1 |

Tested on: ACHN
Experiment: Cytotoxicity SRB assay, ACHN
Format: cell-based, human
Conditions: Renal ACHN, 48 h exposure
Method: as §1

| SMILES | GI50 [µM] |
| --- | --- |
| COc1cc2c(cc1OCCCCCN1CCN(c3ncnc4ccccc34)CC1)N=C[C@@H]1CCCN1C2=O [Compound 5c] | 22 |

Tested on: CAKI-1
Experiment: Cytotoxicity SRB assay, CAKI-1
Format: cell-based, human
Conditions: Renal CAKI-1, 48 h exposure
Method: as §1

| SMILES | GI50 [µM] |
| --- | --- |
| COc1cc2c(cc1OCCCCCN1CCN(c3ncnc4ccccc34)CC1)N=C[C@@H]1CCCN1C2=O [Compound 5c] | 25.8 |

Tested on: TK-10
Experiment: Cytotoxicity SRB assay, TK-10
Format: cell-based, human
Conditions: Renal TK-10, 48 h exposure
Method: as §1

| SMILES | GI50 [µM] |
| --- | --- |
| COc1cc2c(cc1OCCCCCN1CCN(c3ncnc4ccccc34)CC1)N=C[C@@H]1CCCN1C2=O [Compound 5c] | 38.2 |

Tested on: UO-31
Experiment: Cytotoxicity SRB assay, UO-31
Format: cell-based, human
Conditions: Renal UO-31, 48 h exposure
Method: as §1

| SMILES | GI50 [µM] |
| --- | --- |
| COc1cc2c(cc1OCCCCCN1CCN(c3ncnc4ccccc34)CC1)N=C[C@@H]1CCCN1C2=O [Compound 5c] | 22.1 |

Tested on: NCI/ADR-RES
Experiment: Cytotoxicity SRB assay, NCI/ADR-RES
Format: cell-based, human
Conditions: Breast NCI/ADR-RES, 48 h exposure
Method: as §1

| SMILES | GI50 [µM] |
| --- | --- |
| COc1cc2c(cc1OCCCCCN1CCN(c3ncnc4ccccc34)CC1)N=C[C@@H]1CCCN1C2=O [Compound 5c] | 17.7 |

Tested on: MDA-MB-231/ATCC
Experiment: Cytotoxicity SRB assay, MDA-MB-231/ATCC
Format: cell-based, human
Conditions: Breast MDA-MB-231/ATCC, 48 h exposure
Method: as §1

| SMILES | GI50 [µM] |
| --- | --- |
| COc1cc2c(cc1OCCCCCN1CCN(c3ncnc4ccccc34)CC1)N=C[C@@H]1CCCN1C2=O [Compound 5c] | 19.9 |

Tested on: sixty human tumor cells derived from nine cancer types
Experiment: NCI sixty human tumor cell line screen (SRB), all lines / mean graph midpoints
Format: cell-based
Conditions: 50% cell death; human tumor cell lines; 48 h exposure, SRB
Method: as §1
The mean graph mid points of log10 TGI and log10 LC50 have shown similar pattern to the log10 GI50 mean graph mid points.

| SMILES | Log10 LC50 mean graph midpoint (MG_MID) |
| --- | --- |
| COc1cc2c(cc1OCCCCCN1CCN(c3ncnc4ccccc34)CC1)N=C[C@@H]1CCCN1C2=O [Compound 5c] | −4.19 |

Same assay, conditions: human tumor cell lines; 48 h exposure, SRB

| SMILES | Log10 GI50 mean graph midpoint (MG_MID) |
| --- | --- |
| COc1cc2c(cc1OCCCCCN1CCN(c3ncnc4ccccc34)CC1)N=C[C@@H]1CCCN1C2=O [Compound 5c] | −5.68 |

Same assay, conditions: total cell growth inhibition; human tumor cell lines; 48 h exposure, SRB

| SMILES | Log10 TGI mean graph midpoint (MG_MID) |
| --- | --- |
| COc1cc2c(cc1OCCCCCN1CCN(c3ncnc4ccccc34)CC1)N=C[C@@H]1CCCN1C2=O [Compound 5c] | −4.86 |

Tested on: duplex-form calf thymus DNA (CT-DNA)
Experiment: Thermal denaturation studies with calf thymus DNA
Format: binding
Conditions: 0 hr, 18 hr and 36 hr at 37° C.
Method: Compounds were subjected to thermal denaturation studies with duplex-form calf thymus DNA (CT-DNA) using an adaptation of a reported procedure. Working solutions in aqueous buffer (10 mM NaH2PO4/Na2HPO4, 1 mM Na2EDTA, pH 7.00+0.01) containing CT-DNA (100 μm in phosphate) and the PBD (20 μm) were prepared by addition of concentrated PBD solutions in DMSO to obtain a fixed [PBD]/[DNA] molar ratio of 1:5. The DNA-PBD solutions were incubated at 37° C. for 0, 18, and 36 h prior to analysis. Samples were monitored at 260 nm using a Beckman DU-7400 spectrophotometer fitted with high performance temperature controller, and heating was applied at 1° C. min^−1 in the 40-90° C. range. DNA helix coil transition temperatures (Tm) were obtained from the maxima in the (dA260)/dT derivative plots. Results are given as the mean±standard deviation from three determinations and are corrected for the effects of DMSO co-solvent using a linear correction term. Drug-induced alterations in DNA melting behaviour are given by: ΔTm=Tm(DNA+PBD)−Tm (DNA alone), where the Tm value for the PBD-free CT-DNA is 69.0±0.01.
The DNA binding activity for these novel C8-linked quinazoline-PBD hybrids has been examined by thermal denaturation studies using calf thymus (CT) DNA. […] Data for 5a-d and DC-81 are included in Table 4 for comparison.

| SMILES | Change of DNA melting (ΔTm) over incubation time |
| --- | --- |
| COc1cc2c(cc1OCCCCCN1CCN(c3ncnc4ccccc34)CC1)N=C[C@@H]1CCCN1C2=O [Compound 5c] | gradually increased |

Same assay, conditions: [PBD]:[DNA] molar ratio 1:5; CT-DNA 100 μM, ligand 20 μM; pH 7.00; 0 h

| SMILES | ΔTμ (° C.) after incubation at 37° C. for 0 h [°C] |
| --- | --- |
| COc1cc2c(cc1OCCCCCN1CCN(c3ncnc4ccccc34)CC1)N=C[C@@H]1CCCN1C2=O [Compound 5c] | 10.3 |

Same assay, conditions: [PBD]:[DNA] molar ratio 1:5; CT-DNA 100 μM, ligand 20 μM; pH 7.00; 18 h

| SMILES | ΔTμ (° C.) after incubation at 37° C. for 18 h [°C] |
| --- | --- |
| COc1cc2c(cc1OCCCCCN1CCN(c3ncnc4ccccc34)CC1)N=C[C@@H]1CCCN1C2=O [Compound 5c] | 11.8 |
